From patent US11013750B2, “Methods for treating and preventing nociceptive pain” (Aurin Biotech Inc., priority 2017, dated 2021)

How the values were obtained:
[1] = test system: SH-SY5Y human neuroblastoma cells; test: CH50 type analysis of inhibition of C3B cleavage, LDH release end point; format: cell-based; settings: SH-SY5Y cells with undiluted human serum, 37° C. for 3 h, read-out: concentration to inhibit cell lysis by 50% (IC 50)
Method: To investigate efficacy of DAS, ATA, AQA and AHA and to inhibit C3B cleavage in SH-SY5Y human neuroblastoma cells, a CH50 type analysis was performed. Lactate dehydrogenase (LDH) release from dead cells was the end point. Reaction mixtures were: SH-SY5Y cells (10^5 cells in 1 ml DMEM/F-12 medium), 250 μL of undiluted human serum and 250 μL of DAS (3 μM), ATA (5 μM), AQA (5 μM), or AHA (5 μM). Mixtures were incubated at 37° C. for 3 h. 100 μl of cell free reaction mixtures were transferred to 96 well plates where they were mixed with a solution containing 15 μl lactate (36 mg/ml in PBS) plus 15 μl p-iodonitrotetrazolium violet (INT, 2 mg/ml in PBS). The enzymatic reaction was started by the addition of 15 μl of NAD^+/diaphorase solution (3 mg/ml NAD^+; 2.3 mg solid/ml diaphorase). After 1 h, optical densities were measured with a Model 450 microplate reader (Bio-Rad Laboratories, Richmond, Calif.) using a 490-nm filter. The amount of LDH released was expressed as a percentage of the value obtained in comparative wells where cells were 100% lysed by 0.1% Triton X-100.
Cell lysis was concentration dependent for each of the components investigated.

[2] = test system: C5a formation (C5 convertase); test: Blockade of C5a formation, western blotting; format: cell-based; settings: SH-SY5Y cells, 10% human serum, zymosan 100 μg/ml, C1 inhibitor 5 μg/ml, 37° C. 1 h
Method: To verify that each of the inhibitors was acting by inhibiting formation of C5 convertase, western blotting experiments were carried out. Results are shown in illustrated in FIG. 4. SH-SY5Y human neuroblastoma cells (2×10^5 cells in 1 ml DMEM/F-12 medium including 10% human serum) were incubated with zymosan (100 μg/ml) in 24 well plates at 37° C. for 1 h with or without DAS (3 μM), ATA (5 μM), AQA (5 μM), or AHA (5 μM). To inhibit any classical pathway activation, C1 inhibitor (5 μg/ml) was added. Supernatants were obtained by centrifugation at 4000 g for 30 min through 30 K-filters (Amicon® Ultra-15, 30,000 NMWL, Millipore, Billerica, Mass.). The filtrates were dried and added to the loading buffer for SDS-PAGE (50-mM Tris (pH 6.8), 0.1% SDS, 0.1% bromophenol blue, and 10% glycerol). Proteins were separated in 10% polyacrylamide gels at 70V for 6 h. The proteins were then transferred to polyvinylidene difluoride (PVDF) membranes (Bio-Rad, CA) at 30 mA for 2 hours. After washing with PBS-T, the membranes were treated with a mouse monoclonal C5/C5a antibody (Abcam, Cambridge Mass., 1/2000) for 15 hours at 4° C. The membranes were then treated with an appropriate HRP-conjugated anti-mouse IgG (A3682, 1/3,000; Sigma) for 3 hours at room temperature. The bands were visualized with an enhanced chemiluminescent system and exposure to photographic film (Hyperfilm ECL; Amersham Pharmacia Biotech, Little Chalfont, UK).

| IC50 [1] | Compound | C5a formation (western blot) ([2]; 3 μM) | C5a formation (western blot) ([2]; 5 μM) |
| --- | --- | --- | --- |
| 550 nM | O=C(O)C1=CC(=C(c2ccc(O)c(C(=O)O)c2)c2ccc(O)c(C(=O)O)c2)C=CC1=O [ATA, aurin tricarboxylic acid] |  |  |
| 534 nM | aurin hexacarboxylic acid [AHA] |  | C5a was no longer formed |
| 522 nM | aurin quadracarboxylic acid [AQA] |  | C5a was no longer formed |

| Compound | IC50 [1] | C5a formation (western blot) ([2]; 3 μM) | C5a formation (western blot) ([2]; 5 μM) |
| --- | --- | --- | --- |
| CC(=O)Oc1ccc(Cc2ccc(OC(C)=O)c(C(=O)O)c2)cc1C(=O)O [DAS, 5,5′-methylenebis(2-acetoxybenzoic) acid] | 109 nM | C5a was no longer formed |  |
